# According to US9439906B2, “Dosing regimen associated with long acting injectable paliperidone esters” (Janssen Pharmaceutica NV, priority 2007, dated 2016):
# Legend:
# [1] = test system: subjects with schizophrenia; test: Efficacy in phase 3 placebo-controlled study R092670-PSY-3007 (PANSS, PSP, CGI-S); type: in vivo, human; settings: for PANSS Total Score End point Mean (SD): LOCF; for PANSS Total Score Change from Baseline Mean (SD): end point LOCF, placebo −2.9; for mean improvement in the PSP score from baseline to end point: placebo 1.7; for subjects who achieved responder status (30% or larger decrease on PANSS total scores): placebo 20.0%
# Description: The study included a screening period of up to 7 days and a 13-week double-blind treatment period. The screening period included a washout of disallowed psychotropic medications. […] Subjects who had source documentation of previous exposure to the above medications and were currently taking another antipsychotic regimen continued their current treatment through Day-1. At the beginning of the double-blind treatment period, subjects were randomly assigned in a 1:1:1:1 ratio to 1 of 4 treatment groups: placebo or paliperidone palmitate 25 mg eq., 100 mg eq., or 150 mg eq. Study medication was administered as 4 doses: an initial i.m. injection of 150 mg eq. of paliperidone palmitate or placebo followed by 3 fixed i.m. doses of placebo or paliperidone palmitate [25, 100, or 150 mg eq.] on Days 8, 36, and 64. The initial injection of study medication was given in the deltoid muscle. Subsequent injections were given either in the deltoid or gluteal muscle at the discretion of the investigator. Randomized subjects were to remain in the study for 28 days after the last injection on Day 64 with the end of study visit scheduled for Day 92 during the double-blind period. The entire study, including the screening period, lasted approximately 14 weeks. Samples for pharmacokinetic (PK) evaluation were collected on Day 1, prior to the first injection and on Days 2, 4, 6, 8, 15, 22, 36, 64 and 92. Efficacy and safety were evaluated regularly throughout the study. A pharmacogenomic blood sample (10 mL) was collected from subjects who gave separate written informed consent for this part of the study. Participation in the pharmacogenomic research was optional. Approximately 105 to 115 mL of whole blood was collected during the study. The primary endpoint was the change in the PANSS total score from baseline (i.e., the start of double-blind treatment, Day 1) to the end of the double-blind treatment period (i.e., Day 92 or the last post baseline assessment). The key secondary efficacy endpoint was the change in the Personal and Social Performance Scale (PSP) from baseline to the end of the double-blind treatment period. The other secondary efficacy endpoint was the change in the Clinical Global Impression-Severity (CGI-S) scores from baseline to the end of the double-blind treatment period. Other endpoints included the change from baseline in subject ratings of sleep quality and daytime drowsiness using a visual analogue scale (VAS), the onset of therapeutic effect, responder rate, and the change from baseline to end point in PANSS subscales and […] factors. All randomized subjects who received at least 1 dose of double-blind study drug and had both baseline and at least one post baseline efficacy measurement (PANSS, PSP, or CGI-S) during the double-blind treatment period were included in the intent-to-treat efficacy analyses. […] This procedure is referred to as the Dunnett-Bonferroni-based parallel gatekeeping procedure. The change from baseline in PANSS total score at each visit and at end point was analyzed using an analysis of covariance (ANCOVA) model. The last observation carried forward (LOCF) method was used. The model included treatment and country as factors and baseline PANSS total score as a covariate. Treatment effect was based on the difference in least-squares mean change. […] Treatment-by-country and treatment-by-baseline PANSS total score interactions were explored using the same ANCOVA model as the one for the analysis of the primary endpoint. If either term was statistically significant at the predefined 2-sided significance level of 0.10, further evaluations of the effect of other covariates were to be performed to assess the nature of the interaction and identify possible causes. […] The analysis of the key secondary endpoint, change in PSP score at end point, was conducted by means of an ANCOVA model with treatment and country as factors and the baseline score as the covariate. […]
# [2] = Safety in phase 3 placebo-controlled study R092670-PSY-3007; type: in vivo, human; settings: for average increase in body weight: placebo −0.2 kg; for Akathisia (EPS-related adverse event): placebo 4.9%; for mean change in BMI from baseline to end point: placebo −0.1
# Experimental: Safety was monitored by the evaluation of adverse events, extrapyramidal symptom (EPS) rating scales (Abnormal Involuntary Movement Scale [AIMS], Barnes Akathisia Rating Scale [BARS], Simpson and Angus Rating Scale [SAS]) scores, clinical laboratory test results, vital signs measurements, electrocardiograms (ECGs), and physical examination findings. In addition, the tolerability of injections was assessed; the investigators evaluated injection sites and the subjects assessed injection pain.
# The number and percentage of subjects with treatment-emergent adverse events were summarized. Adverse events of potential clinical interest were summarized separately, including events related to EPS or changes in serum glucose or prolactin levels.
# Changes from baseline in clinical laboratory tests, vital sign measurements, ECGs, body weight, BMI, and EPS scale scores were summarized by treatment group. Prolactin levels were summarized by sex. Subjects with potentially abnormal values or changes in clinical laboratory tests, vital signs, orthostatic parameters, and ECG parameters were summarized based on predefined criteria. Frequency distributions were presented for the investigator's evaluation of the injection site, and descriptive statistics were presented for VAS scores corresponding to the subject's evaluation of injection pain.
# [3] = Treatment-emergent adverse events in the single-dose dose-proportionality study; settings: single dose 25-150 mg-eq.
# Description: The subjects were assigned into eight treatment groups: paliperidone palmitate 25 (n=48), 50 (n=50), 100 (n=51) or 150 (n=52) mg-eq. injected into either the deltoid or gluteal muscle.
compound,measurement,setting,value
"CCCCCCCCCCCCCCCC(=O)OC1CCCn2c1nc(C)c(CCN1CCC(c3noc4cc(F)ccc34)CC1)c2=O (racemic) [paliperidone palmitate, (±)-3-[2-[4-(6-fluoro-1,2-benzisoxazol-3-yl)-1-piperidinyl]ethyl]-6,7,8,9-tetrahydro-2-methyl-4-oxo-4H-pyrido[1,2-α]pyrimidin-9-yl hexadecanoate]",earliest time point of statistically significant improvement over placebo in change in PANSS total score,[1]; 25 mg eq. and 150 mg eq. groups,Day 8
same,"PANSS Total Score change, Diff of LS Means (SE) versus placebo",[1]; 25 mg eq. group,−5.1 (2.01)
same,PANSS Total Score End point Mean (SD),"[1]; 25 mg eq. group (150 mg eq. Day 1, then 25 mg eq. Days 8, 36, 64)",78.8 (19.88)
same,PANSS Total Score Change from Baseline Mean (SD),[1]; 25 mg eq. group,−8.0 (19.90)
same,mean improvement in the PSP score from baseline to end point,[1]; 25 mg eq. group,2.9
same,subjects who achieved responder status (30% or larger decrease on PANSS total scores),[1]; 25 mg eq. group,33.5%
same,"PANSS Total Score change, Diff of LS Means (SE) versus placebo",[1]; 100 mg eq. group,−8.7 (2.00)
same,PANSS Total Score End point Mean (SD),"[1]; 100 mg eq. group (150 mg eq. Day 1, then 100 mg eq. Days 8, 36, 64)",74.6 (18.06)
same,PANSS Total Score Change from Baseline Mean (SD),[1]; 100 mg eq. group,−11.6 (17.63)
same,mean improvement in the PSP score from baseline to end point,[1]; 100 mg eq. group,6.1
same,subjects who achieved responder status (30% or larger decrease on PANSS total scores),[1]; 100 mg eq. group,41.0%
same,"PANSS Total Score change, Diff of LS Means (SE) versus placebo",[1]; 150 mg eq. group,−9.8 (2.00)
same,PANSS Total Score End point Mean (SD),"[1]; 150 mg eq. group (150 mg eq. Days 1, 8, 36, 64)",75.2 (18.59)
same,PANSS Total Score Change from Baseline Mean (SD),[1]; 150 mg eq. group,−13.2 (18.48)
same,mean improvement in the PSP score from baseline to end point,[1]; 150 mg eq. group,8.3
same,subjects who achieved responder status (30% or larger decrease on PANSS total scores),[1]; 150 mg eq. group,40.0%
same,time point as of which improvement over placebo in change in PANSS total score was statistically significant,[1]; all 3 dose groups,Day 22
same,"1 or more serious TEAE, (%)",[2]; 25 mg eq. group (N = 160),(9.4) %
same,"Possibly related TEAE, (%)",[2]; 25 mg eq. group (N = 160),(28.1) %
same,"TEAE leading to permanent stop, (%)",[2]; 25 mg eq. group (N = 160),(6.3) %
same,"TEAE, (%)",[2]; 25 mg eq. group (N = 160),(63.1) %
same,average increase in body weight,"[2]; 25 mg eq. group, 13 weeks",0.4 kg
same,Akathisia (EPS-related adverse event),[2]; 25 mg eq. group,1.3%
same,mean change in BMI from baseline to end point,[2]; 25 mg eq. group,0.1 kg/m^2
same,"1 or more serious TEAE, (%)",[2]; 100 mg eq. group (N = 165),(13.3) %
same,"Possibly related TEAE, (%)",[2]; 100 mg eq. group (N = 165),(29.7) %
same,"TEAE leading to permanent stop, (%)",[2]; 100 mg eq. group (N = 165),(6.1) %
same,"TEAE, (%)",[2]; 100 mg eq. group (N = 165),(60.0) %
same,average increase in body weight,"[2]; 100 mg eq. group, 13 weeks",0.7 kg
same,Akathisia (EPS-related adverse event),[2]; 100 mg eq. group,4.8%
same,mean change in BMI from baseline to end point,[2]; 100 mg eq. group,0.3 kg/m^2
same,tolerability,"[2]; 150 mg eq. deltoid then 25, 100 or 150 mg eq. Days 8, 36, 64, 13 weeks",generally well tolerated
same,"1 or more serious TEAE, (%)",[2]; 150 mg eq. group (N = 163),8.0%
same,"Possibly related TEAE, (%)",[2]; 150 mg eq. group (N = 163),31.3%
same,"TEAE leading to death, (%)",[2]; 150 mg eq. group (N = 163),0.6%
same,"TEAE leading to permanent stop, (%)",[2]; 150 mg eq. group (N = 163),8.0%
same,"TEAE, (%)",[2]; 150 mg eq. group (N = 163),63.2%
same,average increase in body weight,"[2]; 150 mg eq. group, 13 weeks",1.4 kg
same,Akathisia (EPS-related adverse event),[2]; 150 mg eq. group,5.5%
same,mean change in BMI from baseline to end point,[2]; 150 mg eq. group,0.5 kg/m^2
same,Local injection site tolerability,[2]; all dose groups,good
same,incidence of treatment-emergent EPS-related adverse events,[2]; all dose groups,low and comparable to placebo
same,ECG: clinically significant QTc prolongation,[2]; doses up to 150 mg eq.,did not demonstrate evidence of clinically significant QTc prolongation
same,subjects with maximum QTcLD value >480 ms or maximal change in QTcLD >60 ms,[2]; during the study,No subject
same,subjects with weight increase of at least 7% relative to baseline,"[2]; highest dose (150 mg eq.), placebo 5%",13%
same,prolactin levels,"[2]; versus placebo, largest increase in the 150 mg eq. group",increases in prolactin levels were observed with greater frequency
same,Treatment-emergent AE: headache,[3],7%
same,Treatment-emergent AE: insomnia,[3],5%
same,Treatment-emergent AE: schizophrenia,[3],6%
same,Treatment-emergent AE: tachycardia,[3],10%
same,deaths,[3],No deaths
same,subjects discontinued due to TEAs,[3],2%
